Experimental data taken from patent US7390923B2, “Propionamide derivatives useful as androgen receptor modulators” (Orion Corporation, priority 2003, dated 2008).

Biological target: T1, androgen receptor (AR) (Rattus norvegicus, UniProt P15207)
T1 construct: Ventral prostates were obtained form rats castrated 24 h prior to sacrifice; from tissue; host or cells: rat ventral prostate cytosol (castrated rats, charcoal-treated)
T1 sequence (P15207 1-902): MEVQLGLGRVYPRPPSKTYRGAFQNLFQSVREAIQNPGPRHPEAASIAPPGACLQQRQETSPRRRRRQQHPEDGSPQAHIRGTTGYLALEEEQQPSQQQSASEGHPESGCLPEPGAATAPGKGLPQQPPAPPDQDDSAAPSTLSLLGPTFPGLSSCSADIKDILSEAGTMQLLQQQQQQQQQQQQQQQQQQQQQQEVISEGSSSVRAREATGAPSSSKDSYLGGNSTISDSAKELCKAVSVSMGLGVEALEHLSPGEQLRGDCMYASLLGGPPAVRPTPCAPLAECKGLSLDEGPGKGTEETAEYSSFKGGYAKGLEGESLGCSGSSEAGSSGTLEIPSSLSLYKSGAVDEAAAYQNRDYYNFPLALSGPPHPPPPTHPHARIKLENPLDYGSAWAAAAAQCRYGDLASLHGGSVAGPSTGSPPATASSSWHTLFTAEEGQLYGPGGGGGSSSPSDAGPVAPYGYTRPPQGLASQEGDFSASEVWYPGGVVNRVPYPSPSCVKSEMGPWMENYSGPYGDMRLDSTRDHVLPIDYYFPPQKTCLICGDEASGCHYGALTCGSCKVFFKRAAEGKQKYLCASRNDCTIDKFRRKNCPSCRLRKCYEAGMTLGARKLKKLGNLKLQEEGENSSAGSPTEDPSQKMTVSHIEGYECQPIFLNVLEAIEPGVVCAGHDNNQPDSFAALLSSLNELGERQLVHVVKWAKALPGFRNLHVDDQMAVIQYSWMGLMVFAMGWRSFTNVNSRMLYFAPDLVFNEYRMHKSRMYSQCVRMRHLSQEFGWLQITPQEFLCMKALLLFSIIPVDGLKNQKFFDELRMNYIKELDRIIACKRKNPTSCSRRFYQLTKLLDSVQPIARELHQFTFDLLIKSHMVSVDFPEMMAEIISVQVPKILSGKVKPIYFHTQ
Test: AR binding assay, competition with [3H]-mibolerone binding in rat ventral prostate cytosol
Settings: 1 nM [3H]-mibolerone, overnight at 0° C.
Protocol: Ventral prostates were obtained form rats castrated 24 h prior to sacrifice. Fresh prostate was minced and washed with Buffer A (Schilling and Liao, Prostate, 5:581-588, 1984). The minces were then homogenized in 3× volume of Buffer A containing protease inhibitors (Complete, Mini, EDTA-free Roche). The homogenate was centrifuged at 30000 g for 30 min. The resultant supernatants were treated with 1×volume of dextran-coated charcoal solution (12.5 g activated charcoal, 12.5 g dextran per liter of buffer A) to remove endogenous steroids. The samples were incubated for 5 min and centrifuged at 16000 g for 10 min. Aliquots of the charcoal-treated cytosol were taken for androgen receptor assays. All procedures were carried out at 0-4° C.
Cytosol androgen receptor concentration was determined as described (Isomaa et al., Endocrinology, 111: 833-843, 1982) with minor modifications. Cytosol preparations were prepared as described above, and bound and free steroids were separated by treatment with an equal volume of dextran-charcoal suspension for 5 min at 4° C. followed by centrifugation at 16000 g for 10 min. Bound radioactivity was determined by counting supernatant fractions in 1 ml of OptiPhase HiSafe3 or OptiPhase Supermix (PerkinElmer).
Cytosol preparations were labelled with 1 nM [^3H]-mibolerone overnight at 0° C. (total). To determine AR binding activity of the compounds of the present invention (test compounds), the ability of test compounds to compete with [^3H]7α,17α-dimethyl-17β-hydroxy-4-estren-3-one ([^3H]-mibolerone) binding was studied. 1 nM [^3H]-mibolerone and test compounds in two concentrations (0.2 and 2 uM) were incubated overnight at 0° C. To determine non-specific binding, parallel incubations were carried out using 1 nM concentration [^3H]-mibolerone with 500-fold molar excess of unlabelled testosterone. Two to four replicates were used for each sample. After incubation, bound and free steroids were separated as described above and bound radioactivity was determined. The ability of the test compounds to bind AR is reported as reduction in bound radioactivity obtained with 1 nM [^3H]-mibolerone. The results (% inhibition) were calculated as: % inhibition=100−(100×(averagetest compound/averagetotal)).

SMILES | inhibition at 0.2 µM (test compound 0.2 μM) [%] | inhibition at 2 µM (test compound 2.0 μM) [%] | Inhibition (%) of [3H]-mibolerone binding at 0.2 μM (test compound 0.2 μM) [%] | Inhibition (%) of [3H]-mibolerone binding at 2.0 μM (test compound 2.0 μM) [%]
Cc1cc(NC(=O)C(C)(O)COc2ccc(C(N)=O)cc2)ccc1[N+](=O)[O-] (centres unmarked) [Example 5, 4-[2-Hydroxy-2-(3-methyl-4-nitrophenylcarbamoyl)propoxy]benzamide] | 25 | 74 |  | 
Cc1cc(NC(=O)C(C)(O)COc2ccccc2F)ccc1[N+](=O)[O-] (centres unmarked) [Example 19, 3-(2-Fluorophenoxy)-2-hydroxy-2-methyl-N-(3-methyl-4-nitrophenyl)propionamide] | 83 | 99 |  | 
Cc1cc(NC(=O)C(C)(O)COc2c(Cl)cccc2Cl)ccc1[N+](=O)[O-] (centres unmarked) [Example 21, 3-(2,6-Dichlorophenoxy)-2-hydroxy-2-methyl-N-(3-methyl-4-nitrophenyl)propionamide] | 26 | 91 |  | 
Cc1cc(NC(=O)C(C)(O)COc2ccc3c(c2)OCO3)ccc1[N+](=O)[O-] (centres unmarked) [Example 26, 3-(Benzo[1,3]dioxol-5-yloxy)-2-hydroxy-2-methyl-N-(3-methyl-4-nitrophenyl)propionamide] | 62 | 92 |  | 
CC(O)(COc1ccc(C#N)c(F)c1)C(=O)Nc1ccc([N+](=O)[O-])c(CO)c1 (centres unmarked) [Example 51, 3-(4-Cyano-3-fluorophenoxy)-2-hydroxy-N-(3-hydroxymethyl-4-nitrophenyl)-2-methylpropionamide] | 73 | 92 |  | 
CC(=O)Nc1ccc(OCC(C)(O)C(=O)Nc2ccc([N+](=O)[O-])c(C)c2)cc1C(F)(F)F (centres unmarked) [Example 31, 3-(4-Acetylamino-3-trifluoromethylphenoxy)-2-hydroxy-2-methyl-N-(3-methyl-4-nitrophenyl)propionamide] | 18 | 75 |  | 
Cc1cc(NC(=O)C(C)(O)COc2ccccc2)ccc1[N+](=O)[O-] (centres unmarked) [Example 14, 2-Hydroxy-2-methyl-N-(3-methyl-4-nitrophenyl)-3-phenoxypropionamide] | 75 | 95 |  | 
Cc1cc(NC(=O)C(C)(O)COc2cc(C)c(Cl)c(C)c2Cl)ccc1[N+](=O)[O-] (centres unmarked) [Example 29, 3-(2,4-Dichloro-3,5-dimethylphenoxy)-2-hydroxy-2-methyl-N-(3-methyl-4-nitrophenyl)propionamide] | 92 | 90 |  | 
Cc1cc([N+](=O)[O-])ccc1NC(=O)C(C)(O)COc1ccc(C#N)c(F)c1 (centres unmarked) [Example 64, 3-(4-Cyano-3-fluorophenoxy)-2-hydroxy-2-methyl-N-(2-methyl-4-nitrophenyl)propionamide] | 79 | 89 |  | 
Cc1cc(NC(=O)C(C)(O)COc2ccc(Br)cc2)ccc1[N+](=O)[O-] (centres unmarked) [Example 24, 3-(4-Bromophenoxy)-2-hydroxy-2-methyl-N-(3-methyl-4-nitrophenyl)propionamide] | 75 | 93 |  | 
CC(O)(COc1ccc(C#N)c(F)c1)C(=O)Nc1ccc([N+](=O)[O-])c(C=O)c1 (centres unmarked) [Example 66, 3-(4-Cyano-3-fluorophenoxy)-N-(3-formyl-4-nitrophenyl)-2-hydroxy-2-methylpropionamide] | 69 | 93 |  | 
Cc1cc(NC(=O)C(C)(O)COc2cccc(F)c2)ccc1[N+](=O)[O-] (centres unmarked) [Example 18, 3-(3-Fluorophenoxy)-2-hydroxy-2-methyl-N-(3-methyl-4-nitrophenyl)propionamide] | 90 | 99 |  | 
COc1ccc(OCC(C)(O)C(=O)Nc2ccc([N+](=O)[O-])c(C)c2)cc1OC (centres unmarked) [Example 27, 3-(3,4-Dimethoxyphenoxy)-2-hydroxy-2-methyl-N-(3-methyl-4-nitrophenyl)propionamide] | 34 | 89 |  | 
Cc1cc(NC(=O)C(C)(O)COc2ccc(Cl)c(Cl)c2)ccc1[N+](=O)[O-] (centres unmarked) [Example 6, 3-(3,4-Dichlorophenoxy)-2-hydroxy-2-methyl-N-(3-methyl-4-nitrophenyl)propionamide] | 68 | 95 |  | 
Cc1cc(NC(=O)C(C)(O)COc2ccncc2)ccc1[N+](=O)[O-] (centres unmarked) [Example 58, 2-Hydroxy-2-methyl-N-(3-methyl-4-nitrophenyl)-3-(pyridin-4-yloxo)propionamide] |  |  | 84 | 93
Cc1ccc(OCC(C)(O)C(=O)Nc2ccc([N+](=O)[O-])c(C)c2)cc1 (centres unmarked) [Example 12, 2-Hydroxy-2-methyl-N-(3-methyl-4-nitrophenyl)-3-p-tolyloxypropionamide] | 77 | 101 |  | 
CCOC(=O)c1ccc(OCC(C)(O)C(=O)Nc2ccc([N+](=O)[O-])c(C)c2)cc1 (centres unmarked) [Example 7, 4-[2-Hydroxy-2-(3-methyl-4-nitrophenylcarbamoyl)propoxy]benzoic acid ethyl ester] | 74 | 98 |  | 
CC(=O)Nc1ccc(OC[C@](C)(O)C(=O)Nc2ccc([N+](=O)[O-])c(C)c2)cc1F [Example 4, (2S)-3-(4-Acetylamino-3-fluorophenoxy)-2-hydroxy-2-methyl-N-(3-methyl-4-nitrophenyl)propionamide] | 90 | 88 |  | 
Cc1cc(NC(=O)C(C)(O)COc2ccc(NC(=O)C(F)(F)F)cc2)ccc1[N+](=O)[O-] (centres unmarked) [Example 13, 2-Hydroxy-2-methyl-N-(3-methyl-4-nitrophenyl)-3-[4-(2,2,2-trifluoroacetylamino)phenoxy]propionamide] | 77 | 90 |  | 
CC(=O)c1ccc(OCC(C)(O)C(=O)Nc2ccc([N+](=O)[O-])c(C)c2)cc1 (centres unmarked) [Example 16, 3-(4-Acetylphenoxy)-2-hydroxy-2-methyl-N-(3-methyl-4-nitrophenyl)propionamide] | 50 | 91 |  | 
Cc1cc(NC(=O)C(C)(O)COc2ccc(C(=O)c3ccc(Cl)cc3)cc2)ccc1[N+](=O)[O-] (centres unmarked) [Example 36, 3-[4-(4-Chlorobenzoyl)phenoxy]-2-hydroxy-2-methyl-N-(3-methyl-4-nitrophenyl)propionamide] | 3 | 50 |  | 
Cc1cc(NC(=O)C(C)(O)COc2ccc(OCCCl)cc2)ccc1[N+](=O)[O-] (centres unmarked) [Example 80, 3-[4-(2-Chloroethoxy)phenoxy]-2-hydroxy-2-methyl-N-(3-methyl-4-nitrophenyl)propionamide] | 87 | 99 |  | 
CC(=O)Nc1ccc(OCC(C)(O)C(=O)Nc2ccc([N+](=O)[O-])c(C)c2)cc1 (centres unmarked) [Example 1, 3-(4-Acetylaminophenoxy)-2-hydroxy-2-methyl-N-(3-methyl-4-nitrophenyl)propionamide] | 91 | 101 |  | 
Cc1cc(NC(=O)C(C)(O)COc2ccc(CCCCl)cc2)ccc1[N+](=O)[O-] (centres unmarked) [Example 79, 3-[4-(3-Chloropropyl)phenoxy]-2-hydroxy-2-methyl-N-(3-methyl-4-nitrophenyl)propionamide] | 89 | 98 |  | 
Cc1cc(NC(=O)C(C)(O)COc2ccc(F)cc2)ccc1[N+](=O)[O-] (centres unmarked) [Example 11, 3-(4-Fluorophenoxy)-2-hydroxy-2-methyl-N-(3-methyl-4-nitrophenyl)propionamide] | 98 | 105 |  | 
